Holding throughout (type): binding
Assay [1] has as its target T1, human serotonin transporter (hSERT) (Homo sapiens, UniProt P31645).
T1 construct: expressed in transfected cells; Tatsumi et al. 1997
The experiment in a line: Screening for human serotonin transporter (hSERT) antagonists, scintillation proximity assay (SPA). Particulars: competition with [3H]-Citalopram; membranes of HEK-293 cells expressing recombinant hSERT. As to the method: The screening assay of this example was used to determine the affinity of ligands at the hSERT transporter by competition with [^3H]-Citalopram.
Scintillation Proximity Assay (SPA) works by bringing radioligand within close proximity to the bead's scintillant to stimulate light emission. In this assay, the receptor-containing membranes were pre-coupled to the SPA beads and the binding of the appropriate radioligand to the transporter was measured. The light emission was proportional to the amount of bound radioligand. Unbound radioligand produced no signal as a result of distant proximity to scintillant (lack of energy transfer). […]
(§1) Cell membranes were prepared using a membrane preparation buffer of 50 mM TRIS (pH 7.4). […] After a second centrifugation, the pellet was re-homogenized and brought to a final volume determined during the assay. […]
The % inhibition was calculated for each compound tested [(Compound counts per minute (CPM) at maximum concentration-Non-Specific CPM)/Total CPM*100]. […]
(§2) [formula] where max=total binding, min=non specific binding, x=concentration (M) of the tested compound and n=Hill slope. The inhibition dissociation constant (Ki) of each compound was determined according to the method of Cheng-Prusoff and then converted into negative logarithm (pKi) of the Ki.

Assay [2] deals with T2, human norepinephrine transporter (hNET) (Homo sapiens, UniProt P23975).
T2 construct: expressed in transfected cells; Clone: HEK-hNET #2)
T2 sequence (P23975 whole entry): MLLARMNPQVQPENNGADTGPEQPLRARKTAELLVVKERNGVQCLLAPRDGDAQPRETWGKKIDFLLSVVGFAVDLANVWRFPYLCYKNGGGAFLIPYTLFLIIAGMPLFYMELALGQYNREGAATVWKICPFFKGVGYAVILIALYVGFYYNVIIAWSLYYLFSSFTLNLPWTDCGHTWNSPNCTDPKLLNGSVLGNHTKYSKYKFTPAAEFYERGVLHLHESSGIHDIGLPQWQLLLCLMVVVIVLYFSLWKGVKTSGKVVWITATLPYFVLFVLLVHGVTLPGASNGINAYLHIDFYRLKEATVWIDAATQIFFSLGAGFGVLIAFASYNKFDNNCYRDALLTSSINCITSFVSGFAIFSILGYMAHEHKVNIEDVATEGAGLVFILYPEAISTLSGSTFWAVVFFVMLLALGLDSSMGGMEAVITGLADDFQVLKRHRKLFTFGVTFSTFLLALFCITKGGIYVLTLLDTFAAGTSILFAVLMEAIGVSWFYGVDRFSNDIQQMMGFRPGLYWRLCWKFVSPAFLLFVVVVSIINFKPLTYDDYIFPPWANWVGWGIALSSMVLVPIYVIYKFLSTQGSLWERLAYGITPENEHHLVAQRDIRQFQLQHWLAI
The experiment in a line: Screening for compounds active at human norepinephrine transporter (hNET), scintillation proximity assay (SPA). Particulars: competition with [3H]-Nisoxetine; membranes of HEK-293 cells expressing recombinant hNET. On the procedure: This assay was used to determine the affinity of ligands for the hNET transporter by competition with [^3H]-Nisoxetine. As in the hSERT assay of the above example, receptor-containing membranes were pre-coupled to the SPA beads and the binding of the appropriate radioligand to the transporter was measured. The light emission was proportional to the amount of bound radioligand, with unbound radioligand producing no signal.
HEK-293 cells (Tatsumi et al., Eur. J. Pharmacol. 1997, 30, 249-258) stably expressing recombinant hNET (Clone: HEK-hNET #2) were maintained with media (DMEM hi glucose with 10% FBS, 300 μg/ml G418 and 2 mM L-Glutamine) and incubated at 37° C. with 5% CO2. Cells were released from culture flasks using PBS for 1-2 minutes. […]
as §1
^3[H] […] The mixtures were allowed to stand at room temperature for one hour, and were then counted on a Packard TopCount LCS, a generic SPA counting protocol settings (Energy Range: Low, Efficiency Mode: Normal, Region A: 1.50-35.00, Region B: 1.50-256.00, Count Time (min.): 0.40, Background Subtract: none, Half-Life Correction: no, Quench Indicator: tSIS, Platemap blank subtraction: No, Cross talk reduction: Off). […]

The target in assay [3] is T3, human dopamine transporter (hDAT) (Homo sapiens, UniProt Q01959).
T3 construct: expressed in transfected cells; Tatsumi et al. 1997
T3 sequence (Q01959 whole entry): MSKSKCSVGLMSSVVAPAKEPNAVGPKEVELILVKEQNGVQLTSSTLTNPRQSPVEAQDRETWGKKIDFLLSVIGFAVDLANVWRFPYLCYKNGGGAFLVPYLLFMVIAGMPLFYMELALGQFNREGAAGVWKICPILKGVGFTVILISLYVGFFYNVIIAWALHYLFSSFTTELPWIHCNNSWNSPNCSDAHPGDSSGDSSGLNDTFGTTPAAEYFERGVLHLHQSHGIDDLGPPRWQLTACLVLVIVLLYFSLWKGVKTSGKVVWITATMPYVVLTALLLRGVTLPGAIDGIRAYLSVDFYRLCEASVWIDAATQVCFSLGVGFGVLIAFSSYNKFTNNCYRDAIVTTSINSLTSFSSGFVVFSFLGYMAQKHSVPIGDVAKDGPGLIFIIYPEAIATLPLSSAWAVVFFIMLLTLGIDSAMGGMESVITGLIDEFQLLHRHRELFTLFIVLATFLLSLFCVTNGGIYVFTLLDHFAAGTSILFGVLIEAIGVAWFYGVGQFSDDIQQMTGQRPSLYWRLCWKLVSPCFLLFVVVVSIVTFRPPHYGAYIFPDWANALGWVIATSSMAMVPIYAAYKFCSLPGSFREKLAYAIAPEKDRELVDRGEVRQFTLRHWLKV
The experiment in a line: Screening for compounds active at human dopamine transporter, scintillation proximity assay (SPA). Particulars: competition with [3H]-Vanoxerine; HEK-293 cells expressing recombinant hDAT. As to the method: This assay was used to determine the affinity of ligands for the dopamine transporter by competition with [^3H]-Vanoxerine.
HEK-293 cells (Tatsumi et al., Eur. J. Pharmacol. 1997, 30, 249-258) stably expressing recombinant hDAT were maintained with media (DMEM hi glucose with 10% FBS, 300 μg/ml G418 and 2 mM L-Glutamine) and incubated at 37° C. with 5% CO2. Cells were plated four hours prior to experiment by placing approximately 30,000 cells per well (in PBS) on white, opaque Cell-Tak coated 96 well plates. Extra buffer was apriated from the cell plates using an ELx405 plate washer.
^3[H] vanoxerine (GBR 12909) radioligand, specific activity approximately 59 Ci/mmol, stock concentration, 400 nM, and 50 mM Tris-HCl, 300 mM NaCl, (pH 7.4) buffers were used for Scintillation Proximity Assay IC50/Ki determination. […]
The % inhibition was calculated for each compound tested [(Compound CPM at maximum concentration-Non-Specific CPM)/Total CPM*100]. […]
as §2

Three compounds from patent US8093285B2, “Aminopiperidinyl derivatives and uses thereof” (Roche Palo Alto LLC, priority 2008, dated 2012) can be followed below.

T1 sequence (P31645 whole entry): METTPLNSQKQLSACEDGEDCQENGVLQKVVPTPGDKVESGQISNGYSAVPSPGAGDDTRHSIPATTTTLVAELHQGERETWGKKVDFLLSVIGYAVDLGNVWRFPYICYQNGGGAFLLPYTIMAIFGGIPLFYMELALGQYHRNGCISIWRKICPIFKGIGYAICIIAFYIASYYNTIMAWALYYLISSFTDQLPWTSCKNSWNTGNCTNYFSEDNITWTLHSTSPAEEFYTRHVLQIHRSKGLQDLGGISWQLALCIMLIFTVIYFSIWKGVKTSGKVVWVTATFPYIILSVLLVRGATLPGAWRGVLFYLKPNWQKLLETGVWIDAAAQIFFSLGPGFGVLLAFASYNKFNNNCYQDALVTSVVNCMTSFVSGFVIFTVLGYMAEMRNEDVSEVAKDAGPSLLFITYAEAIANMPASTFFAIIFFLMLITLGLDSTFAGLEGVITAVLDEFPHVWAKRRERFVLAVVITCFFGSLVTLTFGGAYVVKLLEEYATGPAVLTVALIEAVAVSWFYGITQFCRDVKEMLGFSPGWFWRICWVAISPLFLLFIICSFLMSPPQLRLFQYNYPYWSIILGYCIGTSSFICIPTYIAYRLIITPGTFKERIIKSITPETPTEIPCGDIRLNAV

As to `Fc1cccc(CN(c2ccc3[nH]ncc3c2)C2CCNCC2)c1` [Compound 53, (3-Fluoro-benzyl)-(1H-indazol-5-yl)-piperidin-4-yl-amine], in assay [1], the inhibitory constant (Ki) is roughly 0.316 nM.

As to `COc1cccc(CN(c2ccc3[nH]ncc3c2)C2CCNCC2)c1` [Compound 54, (1H-Indazol-5-yl)-(3-methoxy-benzyl)-piperidin-4-yl-amine], in assay [2], the Ki was roughly 1.58 nM.

As for `NS(=O)(=O)c1cccc(CN(c2ccc3[nH]ccc3c2)C2CCNCC2)c1` [Compound 69, 3-{[(1H-Indol-5-yl)-piperidin-4-yl-amino]-methyl}-benzenesulfonamide], the inhibition constant Ki in assay [3] was roughly 10 nM.
